The record followed here is ChEMBL document CHEMBL1151069 (Bioorg Med Chem Lett, 1996).

Positions of bridges follow the written chain, without caps; N, C: chain ends. Residues, ends and D or L forms follow the SMILES beside them.

One experiment deals with T1, Endothelin-1 receptor (Bos taurus, UniProt P21450).
T1 sequence (P21450 whole entry): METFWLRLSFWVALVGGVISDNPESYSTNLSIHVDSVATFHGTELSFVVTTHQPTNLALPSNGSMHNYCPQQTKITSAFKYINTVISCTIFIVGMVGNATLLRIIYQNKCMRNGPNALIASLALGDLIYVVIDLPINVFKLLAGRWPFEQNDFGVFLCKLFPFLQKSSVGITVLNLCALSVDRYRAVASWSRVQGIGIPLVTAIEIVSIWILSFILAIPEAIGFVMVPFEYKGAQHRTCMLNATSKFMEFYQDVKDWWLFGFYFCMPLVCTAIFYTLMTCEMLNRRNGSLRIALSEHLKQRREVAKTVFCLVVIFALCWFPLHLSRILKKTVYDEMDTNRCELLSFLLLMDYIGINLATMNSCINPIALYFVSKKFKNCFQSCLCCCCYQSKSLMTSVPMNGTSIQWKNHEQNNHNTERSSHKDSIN
As to the kind of experiment: Binding activity against Endothelin A receptor expressed from bovine lung membrane preparation. The class given is tissue-based.

The target of experiment [1] is T2, Endothelin receptor type B (Bos taurus, UniProt P28088).
T2 sequence (P28088 whole entry): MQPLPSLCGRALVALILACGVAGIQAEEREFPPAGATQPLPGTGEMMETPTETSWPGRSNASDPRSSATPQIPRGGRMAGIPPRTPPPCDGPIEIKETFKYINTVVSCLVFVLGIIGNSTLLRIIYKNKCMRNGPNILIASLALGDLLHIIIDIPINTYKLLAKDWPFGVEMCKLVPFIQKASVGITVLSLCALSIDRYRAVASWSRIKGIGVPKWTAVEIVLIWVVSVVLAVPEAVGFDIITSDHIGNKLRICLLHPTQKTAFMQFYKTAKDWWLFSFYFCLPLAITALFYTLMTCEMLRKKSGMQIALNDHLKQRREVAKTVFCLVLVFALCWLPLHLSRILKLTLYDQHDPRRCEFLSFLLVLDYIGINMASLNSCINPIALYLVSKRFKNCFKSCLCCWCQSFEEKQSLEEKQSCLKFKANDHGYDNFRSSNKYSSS
As to the kind of experiment: Binding activity against Endothelin B receptor expressed from bovine cerebellum membrane preparation. The format is tissue-based.

The IC50 is the concentration at which inhibition is half-maximal. A high value points to a need for much substance. `C[C@@H]1NC(=O)[C@@H]([C@@H](C)O)NC(=O)CNC(=O)[C@@H](Cc2cnc[nH]2)NC(=O)[C@H](Cc2c[nH]c3ccccc23)NC(=O)[C@@H](CC(N)=O)NC(=O)CNC(=O)C[C@H](C(=O)N[C@@H](Cc2c[nH]c3ccccc23)C(=O)N[C@@H](Cc2ccccc2)C(=O)N[C@@H](Cc2ccccc2)C(=O)N[C@@H](CC(N)=O)C(=O)N[C@@H](Cc2ccc(O)cc2)C(=O)N[C@@H](Cc2ccc(O)cc2)C(=O)N[C@@H](Cc2c[nH]c3ccccc23)C(=O)O)NC(=O)[C@H]2CCCN2C1=O` came in with an IC50 at Endothelin-1 receptor of over 98 nM. Compound `C[C@@H]1NC(=O)[C@H]([C@@H](C)O)NC(=O)CNC(=O)[C@H](Cc2c[nH]cn2)NC(=O)[C@H](Cc2c[nH]c3ccccc23)NC(=O)[C@H](CC(N)=O)NC(=O)CNC(=O)C[C@@H](C(=O)N[C@@H](Cc2c[nH]c3ccccc23)C(=O)N[C@@H](Cc2ccccc2)C(=O)N[C@@H](Cc2ccccc2)C(=O)N[C@@H](CC(N)=O)C(=O)N[C@@H](Cc2ccc(O)cc2)C(=O)N[C@@H](Cc2ccc(O)cc2)C(=O)N[C@@H](Cc2ccc3ccccc3c2)C(=O)O)NC(=O)[C@@H]2CCCN2C1=O` had an IC50 in experiment [1] of 6.3 nM. Compound `C[C@@H]1NC(=O)[C@@H]([C@@H](C)O)NC(=O)CNC(=O)[C@@H](Cc2c[nH]cn2)NC(=O)[C@H](Cc2c[nH]c3ccccc23)NC(=O)[C@@H](CC(N)=O)NC(=O)CNC(=O)C[C@H](C(=O)N[C@@H](Cc2c[nH]c3ccccc23)C(=O)N[C@@H](Cc2ccccc2)C(=O)N[C@@H](Cc2ccccc2)C(=O)N[C@@H](CC(N)=O)C(=O)N[C@@H](Cc2ccc(O)cc2)C(=O)N[C@H](Cc2ccc(O)cc2)C(=O)N[C@@H](Cc2c[nH]c3ccccc23)C(=O)O)NC(=O)[C@H]2CCCN2C1=O` yielded an IC50 at Endothelin-1 receptor of over 98 nM. As to `C[C@@H]1NC(=O)[C@H]([C@@H](C)O)NC(=O)CNC(=O)[C@H](Cc2c[nH]cn2)NC(=O)[C@H](Cc2c[nH]c3ccccc23)NC(=O)[C@H](CC(N)=O)NC(=O)CNC(=O)C[C@@H](C(=O)N[C@@H](Cc2c[nH]c3ccccc23)C(=O)N[C@@H](Cc2ccccc2)C(=O)N[C@@H](Cc2ccccc2)C(=O)N[C@@H](CC(N)=O)C(=O)N[C@@H](Cc2ccc(O)cc2)C(=O)N[C@@H](Cc2ccc(O)cc2)C(=O)NCC(=O)O)NC(=O)[C@@H]2CCCN2C1=O` (GNWHGTAPDWFFNYYG-OH; lactam N-9), the IC50 at Endothelin-1 receptor is over 520 nM; in experiment [1], 120 nM.
